This note sets out measurements from ChEMBL document CHEMBL1154954, “Synthesis and in vitro evaluation of (18)F-labelled S-fluoroalkyl diarylguanidines: Novel high-affinity NMDA receptor antagonists for imaging with PET” (Bioorg Med Chem Lett, 2010).

Structures are written as SMILES. Active and inactive are the calls of the source. No cut-off for these calls is given here.

The target in one data set is Glutamate NMDA receptor. The experiment in a line: Displacement of [3H]TCP from NMDA receptor PCP binding site in rat cerebral cortex homogenate. Format: tissue-based. In general terms: Loss of bound radioactivity is the signal in a displacement assay; it reports binding, not function.
Data set [1] in a line: Inhibition of GABA A receptor at 10 nM. The settings on record: tested as the 18F-labelled form.
A short description of data set [2]: Inhibition of GABA A receptor at 1 uM. The settings on record: tested as the 18F-labelled form.
Data set [3] has as its target 5-hydroxytryptamine receptor 5A (Homo sapiens) (UniProt P47898). The data set can be described thus: Inhibition of 5HT5A receptor at 10 nM. The note with it: tested as the 18F-labelled form.
Data set [4] deals with Sodium-dependent noradrenaline transporter (Homo sapiens) (UniProt P23975). The experiment in a line: Inhibition of norepinephrine transporter at 1 uM. The note with it: tested as the 18F-labelled form.
Sodium-dependent noradrenaline transporter (Homo sapiens), sequence (P23975 whole entry): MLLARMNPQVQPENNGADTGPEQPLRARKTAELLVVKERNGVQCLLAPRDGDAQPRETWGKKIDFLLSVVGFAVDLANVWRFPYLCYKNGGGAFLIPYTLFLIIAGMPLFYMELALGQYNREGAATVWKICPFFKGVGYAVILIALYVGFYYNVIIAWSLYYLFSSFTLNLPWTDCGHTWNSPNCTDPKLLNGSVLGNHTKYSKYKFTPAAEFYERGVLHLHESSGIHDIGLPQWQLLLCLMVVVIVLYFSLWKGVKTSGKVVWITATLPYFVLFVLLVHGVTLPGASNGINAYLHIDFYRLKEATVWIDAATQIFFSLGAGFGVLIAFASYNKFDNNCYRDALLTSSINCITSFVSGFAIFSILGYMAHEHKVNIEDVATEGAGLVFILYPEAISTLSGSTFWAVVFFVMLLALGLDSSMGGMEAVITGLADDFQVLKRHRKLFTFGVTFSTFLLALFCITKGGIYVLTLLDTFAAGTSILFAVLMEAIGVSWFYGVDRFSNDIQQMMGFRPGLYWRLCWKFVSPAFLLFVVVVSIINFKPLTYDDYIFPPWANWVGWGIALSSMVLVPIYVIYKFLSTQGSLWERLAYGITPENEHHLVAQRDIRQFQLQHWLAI
Data set [5] in a line: Inhibition of voltage gated sodium channel site 2 at 1 uM. The settings on record: tested as the 18F-labelled form.
A short description of data set [6]: Inhibition of sigma 2 receptor at 10 nM. The settings on record: tested as the 18F-labelled form.
A short description of data set [7]: Inhibition of voltage gated sodium channel site 2 at 10 nM. The note with it: tested as the 18F-labelled form.
A short description of data set [8]: Inhibition of opioid receptor at 1 uM. The settings on record: tested as the 18F-labelled form.
Data set [9] addresses Sigma non-opioid intracellular receptor 1 (Homo sapiens) (UniProt Q99720). The experiment in a line: Inhibition of sigma 1 receptor at 1 uM. The settings on record: tested as the 18F-labelled form.
A short description of data set [10]: Inhibition of sigma 2 receptor at 1 uM. The note with it: tested as the 18F-labelled form.
The target of data set [11] is Sodium-dependent noradrenaline transporter (Homo sapiens) (UniProt P23975). The data set can be described thus: Inhibition of norepinephrine transporter at 10 nM. The settings on record: tested as the 18F-labelled form.
A short description of data set [12]: Inhibition of opioid receptor at 10 nM. The note with it: tested as the 18F-labelled form.
For data set [13], the target named is Sigma non-opioid intracellular receptor 1 (Homo sapiens) (UniProt Q99720). The data set can be described thus: Inhibition of sigma 1 receptor at 10 nM. The settings on record: tested as the 18F-labelled form.
Sigma non-opioid intracellular receptor 1 (Homo sapiens), sequence (Q99720 whole entry): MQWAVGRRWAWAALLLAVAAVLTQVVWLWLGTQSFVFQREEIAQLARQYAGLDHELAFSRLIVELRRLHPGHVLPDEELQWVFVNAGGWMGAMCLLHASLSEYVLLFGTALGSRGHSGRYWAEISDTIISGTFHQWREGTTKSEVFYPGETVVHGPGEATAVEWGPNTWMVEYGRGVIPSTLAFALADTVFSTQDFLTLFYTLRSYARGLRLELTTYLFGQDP
Data set [14] concerns the target 5-hydroxytryptamine receptor 5A (Homo sapiens) (UniProt P47898). The experiment in a line: Inhibition of 5HT5A receptor at 1 uM. The settings on record: tested as the 18F-labelled form.
The nature of data set [15]: Binding affinity to NMDA receptor PCP binding site.
Data set [16] is described as follows: Distribution coefficient, log D at pH 7.5. The format is physicochemical. The settings on record: octanol/water.
Data set [17] is described as follows: Lipophilicity, log D of the compound. The settings on record: octanol/water. Format: physicochemical.
Another data set has as its target hERG (KCNH2) (Homo sapiens, UniProt Q12809). The experiment in a line: Inhibition of human ERG at 1 uM.
Data set [18] can be described thus: Octanol-phosphate buffer partition coefficient, log D at pH 7.4. The format is physicochemical.
Data set [19] has as its target Voltage-gated inwardly rectifying potassium channel KCNH2 (Homo sapiens, UniProt Q12809). The experiment in a line: Inhibition of human ERG at 10 nM. The note with it: 0.01 µM.

5-hydroxytryptamine receptor 5A (Homo sapiens), sequence (P47898 whole entry): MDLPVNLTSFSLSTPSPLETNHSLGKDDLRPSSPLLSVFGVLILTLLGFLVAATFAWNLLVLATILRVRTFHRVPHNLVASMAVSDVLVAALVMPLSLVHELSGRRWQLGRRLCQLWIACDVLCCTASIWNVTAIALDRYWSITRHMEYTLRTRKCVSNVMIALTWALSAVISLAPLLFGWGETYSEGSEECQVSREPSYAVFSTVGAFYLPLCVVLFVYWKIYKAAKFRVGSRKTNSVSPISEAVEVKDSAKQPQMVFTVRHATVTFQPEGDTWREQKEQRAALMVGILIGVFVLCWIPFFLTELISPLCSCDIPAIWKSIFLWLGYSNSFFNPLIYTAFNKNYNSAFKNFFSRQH
hERG (KCNH2), sequence (Q12809 whole entry): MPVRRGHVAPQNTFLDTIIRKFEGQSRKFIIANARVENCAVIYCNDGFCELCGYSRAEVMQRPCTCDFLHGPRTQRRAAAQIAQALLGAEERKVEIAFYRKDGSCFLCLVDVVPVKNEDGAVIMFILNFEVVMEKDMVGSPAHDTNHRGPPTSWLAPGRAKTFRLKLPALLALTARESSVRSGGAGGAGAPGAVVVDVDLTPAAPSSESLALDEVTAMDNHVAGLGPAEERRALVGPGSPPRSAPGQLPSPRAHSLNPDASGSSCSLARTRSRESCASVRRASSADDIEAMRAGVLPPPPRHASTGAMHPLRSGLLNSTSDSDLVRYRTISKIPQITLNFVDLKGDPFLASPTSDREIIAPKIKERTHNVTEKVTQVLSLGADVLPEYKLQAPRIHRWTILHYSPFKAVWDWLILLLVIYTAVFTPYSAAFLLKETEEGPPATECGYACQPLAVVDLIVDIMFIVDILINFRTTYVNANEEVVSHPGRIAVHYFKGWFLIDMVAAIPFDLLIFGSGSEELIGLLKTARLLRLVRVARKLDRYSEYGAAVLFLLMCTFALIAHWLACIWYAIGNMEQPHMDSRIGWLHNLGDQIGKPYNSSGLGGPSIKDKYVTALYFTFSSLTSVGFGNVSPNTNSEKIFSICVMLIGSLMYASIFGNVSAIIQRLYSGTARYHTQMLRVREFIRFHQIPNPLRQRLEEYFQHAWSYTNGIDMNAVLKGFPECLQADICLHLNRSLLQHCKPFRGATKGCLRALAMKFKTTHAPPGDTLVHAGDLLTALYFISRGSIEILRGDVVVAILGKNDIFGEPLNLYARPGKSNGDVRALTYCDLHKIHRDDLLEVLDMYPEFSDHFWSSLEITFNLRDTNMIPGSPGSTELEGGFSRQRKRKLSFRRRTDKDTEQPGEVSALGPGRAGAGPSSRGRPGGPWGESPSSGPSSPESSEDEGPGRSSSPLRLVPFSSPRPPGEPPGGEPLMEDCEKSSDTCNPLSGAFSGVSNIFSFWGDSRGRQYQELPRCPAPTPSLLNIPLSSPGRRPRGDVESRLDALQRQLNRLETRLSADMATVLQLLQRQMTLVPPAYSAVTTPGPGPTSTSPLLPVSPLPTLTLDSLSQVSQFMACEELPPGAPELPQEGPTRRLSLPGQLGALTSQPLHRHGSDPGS
Voltage-gated inwardly rectifying potassium channel KCNH2, sequence (Q12809 whole entry): as above

One may read the Kd as the constant that tells how readily two partners part at equilibrium. `CSc1cccc(N(C)C(=N)Nc2cc(SC[18F])ccc2Cl)c1`: the Kd on Glutamate NMDA receptor is 1.38 nM. This counts as single-digit nanomolar.

As usually defined, the inhibition is the relative decrease from the control value, in per cent. A high value points to a response far below the control. On to `CSc1cccc(N(C)C(=N)Nc2cc(SCCF)ccc2Cl)c1`, for which the result in data set [1], in data set [3], in data set [6], in [7], in data set [11] and in [12] was inactive. Besides, the outcome in [13] was inactive. Moreover, the outcome in data set [2], in [4], in data set [8], in data set [9], in [10] and in data set [14] was Active. Besides, the inhibition in [5] is 47%.

`[18F]CCc1ccc(C2(N3CCCCC3)CCCCC2)s1` showed a Kd in [15] of 38 nM. This counts as double-digit nanomolar.

For the compound `[18F]CC12NC(Cc3ccccc31)c1ccccc12` (centres undefined), the Kd in data set [15] was 79 nM.

As usually defined, the logD is lipophilicity at a set pH, counting ionised and neutral species. Take `CSc1ccc(Cl)c(NC(=N)N(C)c2cccc(S[11CH3])c2)c1`: in [16], the logD was 2.68. Moreover, the Kd in [15] turned out to be 1.9 nM; on Glutamate NMDA receptor, 1.78 nM.

`[11CH3]NC1(c2ccccc2)CCCCC1=O` (centres undefined) [[11C]KETAMINE] displayed a Kd in [15] of 1200 nM.

Consider `CSc1ccc(Cl)c(NC(=N)N(C)c2cccc(O[11CH3])c2)c1`, for which the Kd in [15] stood at 5.2 nM.

`CN(C(=N)Nc1cccc2ccccc12)c1cccc([123I])c1`: in data set [17], the logD amounted to 2.19. This compound also showed a Kd in data set [15] of 4.2 nM.

The IC50 is the concentration needed to halve the response being measured. Low readings indicate greater potency, high ones weaker potency. Compound `C[C@]12C[C@@H]3C[C@](N)(C1)C[C@@](C[18F])(C3)C2` yielded an IC50 in data set [15] of 6000 nM.

`CSc1cccc(N(C)C(=N)Nc2cc(SCC[18F])ccc2Cl)c1` gave an inhibition at 1 µM against hERG (KCNH2) of 56%. In [18], the logD stood at 2.49. Besides, in data set [19], the Activity entry is “Not Active”. The same compound yielded a Kd on Glutamate NMDA receptor of 2.35 nM.
